Results as given in patent publication US8133692B2, “Methods of predicting responsiveness to chemotherapeutic agents and selecting treatments” (University of South Florida, priority 2005, dated 2012).
e = 2'-O-(2-methoxyethyl) (MOE); d = 2'-deoxy (DNA)

Experiments:
Assay type in all cases: cell-based, human
[1] = test system: phosphorylated Stat3; experiment: Western blot for phosphorylated Stat3 after gefitinib in NSCLC cells; conditions: 24 hours
Protocol: (§1) Protein expression analysis. Cell lysates were normalized for total protein content (50 μg) and subjected to SDS-PAGE as described by Song et al., Oncogene 22:4150-65 (2003). Primary antibodies used in these studies consisted of Stat3 (Transduction Laboratories; BD Biosciences, Mississauga, Ontario, Canada), pStat3 Y705 (Cell Signaling Technology), cleaved poly (ADP-ribose) polymerase (Cell Signaling Technology, Beverly, Mass.), Mcl-1 (Santa Cruz Biotechnology, Santa Cruz, Calif.), Bcl-2 (DAKO, Carpinteria, Calif.), Bcl-xL (PharMingen, San Diego, Calif.), and β-actin (Sigma-Aldrich, Milwaukee, Wis.). Detection of proteins was accomplished using horseradish peroxidase-conjugated secondary antibodies and enhanced chemiluminescence purchased through Amersham Biosciences (Pittsburgh, Pa.).

[2] = test system: MDA-MB-435s cells; experiment: IL-6 stimulation: Western blot for phosphor-Stat3 and Survivin; conditions: IL-6 treatment, after 48 hours
Protocol: (§2) Western blot analyses. Cells were lysed in a buffer containing 10 mmol/L Tris-HCl (pH 8.0), 150 mmol/L NaCl, 1% NP40, 0.5% sodium deoxycholate, 0.1% SDS, 1 mmol/L EDTA (pH 8.0), 2 mmol/L phenylmethylsulfonyl fluoride, 2 μg/mL aprotinin, 2 μg/mL leupeptin, and 1 mmol/L Na3VO4. For Western blot analyses, 30 μg of total extracted proteins were applied per lane before SDS-PAGE. Following transfer to nitrocellulose membranes, protein expression levels were detected using polyclonal anti-poly-(ADP-ribose) polymerase antibodies (Cell Signaling Technology, Beverly, Mass.). The expression of β-actin (Sigma-Aldrich, St. Louis, Mo.) was used as a normalization control for protein loading.
To investigate whether cytokine-induced Stat3 activity correlates with increased Survivin expression in breast cancer cells, cells were stimulated with IL-6 to increase Stat3 activation. For IL-6 stimulation, cells were serum-starved (DMEM supplemented with 0.1% fetal bovine serum) for 18 hours before IL-6 treatment (20 or 30 ng/mL in DMEM) for 30 minutes (EMSA) or 48 hours (Western blot analysis). Nuclear extracts and cell lysates were prepared for EMSA and Western blot analysis, respectively, as described above.

[3] = test system: Stat3; experiment: IL-6 stimulation: EMSA of Stat3 DNA-binding activity; conditions: serum-starved MDA-MB-435s cells; IL-6 20 or 30 ng/mL; within 30 minutes
Protocol: Nuclear extract preparation and EMSA. Nuclear extracts were prepared as previously described by Yu et al., Science 269:81-83 (1995), which is incorporated herein by reference, by high-salt extraction into 30 to 70 μL buffer [20 mmol/L HEPES (pH 7.9), 420 mmol/L NaCl, 1 mmol/L EDTA, 20% glycerol, 20 mmol/L NaF, 1 mmol/L Na3VO4, 1 mmol/L Na4P2O7, 1 mmol/L DTT, 0.5 mmol/L phenylmethylsulfonyl fluoride, 0.1 μmol/L aprotinin, 1 μmol/L leupeptin, and 1 μmol/L antipain]. For EMSA, 5 μg of total nuclear protein were used for each lane. EMSA was done using a ^32P-labeled oligonucleotide probe containing a high-affinity cis-inducible element (hSIE, m67 variant) derived from the c-fos gene promoter (sense strand 5′[…]-3′) (SEQ ID NO: 3) that binds activated Stat3 proteins. Following incubation of radiolabeled probes with nuclear extracts, protein-DNA complexes were resolved by nondenaturing PAGE and detected by autoradiography. Stat3 protein was supershifted in the EMSA by preincubation with Stat3 antibody (C-20X, Santa Cruz Biotechnology, Santa Cruz, Calif.).
To investigate whether cytokine-induced Stat3 activity correlates with increased Survivin expression in breast cancer cells, cells were stimulated with IL-6 to increase Stat3 activation. […]

[4] = test system: MDA-MB-435s and MDA-MB-231 cells; experiment: Apoptosis assays (microscopy, in situ TUNEL, PARP cleavage Western blot) in breast cancer cells
Protocol: To assess whether apoptosis was occurring in the cells after blocking of Stat3 the cells were examined microscopically and a TUNEL assay and poly-(ADP)-ribose polymerase (PARP) cleavage assay were performed.
(§3) In situ terminal deoxyribonucleotidyl transferase-mediated dUTP nick end labeling and cellular proliferation assays. MDA-MB-435s and MDA-MB-231 cells were transfected with antisense or control mismatch oligonucleotides. After 48 hours, cells were labeled for apoptotic DNA strand breaks by terminal deoxyribonucleotidyl transferase-mediated dUTP nick end labeling (TUNEL) reaction using an in situ cell death detection assay (Roche Applied Science, Indianapolis, Ind.) according to the instructions of the supplier. TUNEL-positive nuclei were counted and the apoptotic index was expressed as the number of apoptotic cells in one microscopic field. To determine cellular viability, cells were harvested by trypsinization and counted by trypan blue exclusion assay at 24 and 48 hours after transfection. All experiments were done in triplicate.
as §2

[5] = test system: MDA-MB-435s cells; experiment: Microarray gene expression profiling after blockade of Stat3; conditions: 24 hours
Protocol: Microarray gene expression profiling analyses were completed to assess the gene expression changes associated with blockade of Stat3 activity. Five micrograms of total RNA collected from MDA-MB-435s cells treated with antisense or control mismatch oligonucleotides for 24 hours served as the mRNA sources for microarray analysis. The poly(A) mRNA was specifically converted to cDNA and then amplified and labeled with biotin following the procedure initially described by Van Gelder et al., Proc. Natl. Acad. Sci. USA 87:1663-67 (1990) which is incorporated herein by reference. Hybridization with the biotin-labeled DNA, staining, and scanning of the microarray chips followed the prescribed procedure outlined in the Affymetrix technical manual.
The oligonucleotide probe arrays were Human Genome U133A chips (Affymetrix, Santa Clara, Calif.). Scanned output files were visually inspected for hybridization artifacts and then analyzed using Affymetrix Microarray MAS 5.0 software. The MAS 5.0 software identifies the increased and decreased genes between any two samples with a statistical algorithm that assesses the behavior of oligonucleotide probe sets designed to detect the same gene. Probe sets that yielded a change at P<0.0045 were identified as changed (increased or decreased). In addition, the data were processed using robust multiarray analysis as described by Bolstad et al., Bioinformatics 19:185-93 (2003) which is incorporated herein by reference in its entirety. […] Empirical estimates of the null distribution were determined using permutation analysis, thereby controlling the number of false positives. The significance analysis of microarrays (as described by Tusher et al., Proc Natl Acad Sci USA 98:5116-21 (2001), which is incorporated herein by reference) implements this approach to address the multiple testing problem and was also applied to the data analysis.

[6] = test system: Stat3; experiment: EMSA of Stat3 DNA-binding activity after antisense transfection; conditions: MDA-MB-435s cells, 24 and 36 hours after transfection
Protocol: (§4) The human breast cancer cell line MDA-MB-435s, harbors activated Stat3. The cells were grown in DMEM supplemented with 10% fetal bovine serum, 100 units/mL penicillin, and 100 μg/mL streptomycin. The cells were transfected with Stat3 antisense or mismatch oligonucleotides using Lipofectamine-Plus as described by the supplier (Life Technologies, Grand Island, N.Y.). The Stat3 antisense (5′[…]-3′) (SEQ ID NO: 1) and control mismatch (5′[…]-3′) (SEQ ID NO: 2) oligonucleotides were synthesized using phosphorothioate chemistry. To increase stability, oligonucleotides were synthesized with 2′-O-methoxyethyl modification of the five or three underlined terminal nucleotides. The final concentration for Stat3 antisense and control mismatch oligonucleotides was […]. Twenty-four and 36 hours after transfection, the mRNA levels and DNA-binding activities of Stat3 were measured by RNase protection and electrophoretic mobility shift (EMSA) assays, respectively.
Nuclear extract preparation and EMSA. […] Following incubation of radiolabeled probes with nuclear extracts, protein-DNA complexes were resolved by nondenaturing PAGE and detected by autoradiography. […]

[7] = test system: H1650, H1975 and H1299 cells; experiment: Western blot for Stat3, cleaved PARP and Bcl-2 family proteins after antisense Stat3 in NSCLC cells
Protocol: as §1
To determine if Stat3 plays a role in survival in EGFR mutant cells, antisense Stat3 oligonucleotides were used to down-regulate Stat3 as described above. […] Levels of the Bcl-2 family proteins Bcl-xL, Mcl-1, and Bcl-2 were reduced in cells treated with antisense Stat3 consistent with the known role of Stat3 in regulating these proteins (FIG. 9E).

[8] = test system: Stat3 mRNA; experiment: RNase protection assay of Stat3 mRNA after transfection with antisense oligonucleotides; conditions: MDA-MB-435s cells; compared with the mismatch oligonucleotides; 24 and 36 hours after transfection
Protocol: as §4
RNase protection assay. Total RNA was isolated from MDA-MB-435s cells using the RNAeasy mini kit (Qiagen, Valencia, Calif.). RNase protection assays were carried out with the Riboquant hStress-1 template set containing Bcl-xL and Mcl-1 probes or custom-made multiprobe templates containing Stat3 probes (BD PharMingen, San Diego, Calif.). […]

[9] = test system: Survivin; experiment: RNase protection assay and Western blot for Survivin after Stat3 antisense
Protocol: RNase protection assay. Total RNA was isolated from MDA-MB-435s cells using the RNAeasy mini kit (Qiagen, Valencia, Calif.). RNase protection assays were carried out with the Riboquant hStress-1 template set containing Bcl-xL and Mcl-1 probes or custom-made multiprobe templates containing Stat3 probes (BD PharMingen, San Diego, Calif.). Briefly, the multiprobe templates were synthesized by in vitro transcription with incorporation of […] and purified on Quick Spin RNA columns (Roche Applied Science, Indianapolis, Ind.). Labeled probe (1×10^6 cpm) was hybridized with 10 μg of total RNA through a temperature gradient of 90° C. to 56° C. over a 16-hour period. […]
Western blot analyses. […] Following transfer to nitrocellulose membranes, protein expression levels were detected using polyclonal anti-poly-(ADP-ribose) polymerase antibodies (Cell Signaling Technology, Beverly, Mass.). […]
The microarray data were validated using an RNase protection assay using a Survivin probe (BD PharMingen, San Diego, Calif.) as described above. […] Protein expression levels were detected using polyclonal anti-Stat3 (Santa Cruz Biotechnology, Santa Cruz, Calif.) and polyclonal anti-Survivin (Alpha Diagnostics International, San Antonio, Tex.) antibodies.

[10] = test system: MDA-MB-435s and MDA-MB-231 cells; experiment: Cellular viability by trypan blue exclusion assay; conditions: after 24 or 48 hours of incubation
Protocol: as §3

[11] = Survivin antisense 300 nmol/L, MDA-MB-435s and MDA-MB-231 cells

**Q.** `COc1cc2ncnc(Nc3ccc(F)c(Cl)c3)c2cc1OCCCN1CCOCC1` [gefitinib, Gefitinib] was tested. Which “phosphorylated Stat3” value ([1]; H1650 cells with the L746-p753 deletion mutation in EGFR) did it give?
**A.** no effect on phosphorylated Stat3

**Q.** What about the “phosphorylated Stat3” value ([1]; H1975 cells) of the same compound?
**A.** no effect on phosphorylated Stat3

**Q.** And the “phosphorylated Stat3” value ([1]; H3255 cells with the L858R mutation in EGFR, increasing doses)?
**A.** complete inhibition of phosphorylated Stat3

**Q.** Which results are given for “IL-6: interleukin-6, cytokine used to stimulate cells and increase Stat3 activation”?
**A.** Survivin protein expression (Western blot) [2]: induced; phosphor-Stat3 levels (Western blot) [2]: induced; Stat3 DNA-binding activity (EMSA) [3]: increases Stat3 DNA-binding activity

**Q.** How did the “apoptosis by in situ TUNEL assay” value ([4]; Stat3 antisense, 48 hours) turn out when “Stat3 antisense: Stat3 antisense 5′GCTCCAGCATCTGCTGCTTC-3′ (SEQ ID NO: 1), phosphorothioate chemistry with 2′-O-methoxyethyl modification of terminal nucleotides (sugars from the 5' end e5 d10 e5, all phosphorothioate, methylation of C not given here; listed as Homo sapiens)” was run?
**A.** occurrence of apoptosis was confirmed

**Q.** What about the “cleavage of poly-(ADP-ribose) polymerase” value ([4]; Stat3 antisense, 48 hours after treatment) of the same compound?
**A.** cleavage of poly-(ADP-ribose) polymerase

**Q.** And the “vacuolated cells and cellular debris (light microscopy)” value ([4]; incubation for up to 48 hours)?
**A.** marked increase in vacuolated cells and cellular debris

**Q.** And the “expression of Bcl-2 family proteins by microarray analysis” value [5]?
**A.** did not reveal consistent decreases

**Q.** And the “expression of other IAP family members (X-linked IAP, cellular IAP-1, cellular IAP-2) by microarray” value [5]?
**A.** no change

**Q.** What about the “expression of Survivin by microarray analysis” value ([5]; antisense vs control mismatch) of the same compound?
**A.** found to be diminished

**Q.** And the “Stat3 DNA-binding activity” value [6]?
**A.** significant decrease in Stat3 DNA-binding activity

**Q.** And the apoptosis ([7]; H1299 cells, despite Stat3 knock-down)?
**A.** No apoptosis was observed

**Q.** And the Stat3 protein levels ([7]; H1650 and H1975 cells)?
**A.** decreased Stat3 protein levels

**Q.** What about the “cleavage of poly(ADP-ribose) polymerase indicative of apoptosis” value ([7]; H1650 and H1975 cells) of the same compound?
**A.** cleavage of poly(ADP-ribose) polymerase

**Q.** What about the “Levels of the Bcl-2 family proteins Bcl-xL, Mcl-1, and Bcl-2” value ([7]; cells treated with antisense Stat3 vs mismatch control) of the same compound?
**A.** reduced

**Q.** And the “Stat3 mRNA expression” value [8]?
**A.** diminished Stat3 mRNA expression

**Q.** And the “mRNA expression of Survivin (RNase protection assay)” value ([9]; antisense oligonucleotide-treated breast cancer cells)?
**A.** decrease in mRNA expression of Survivin

**Q.** And the “Survivin protein expression (Western blot)” value ([9]; breast cancer cells)?
**A.** decreased Survivin expression

**Q.** What about the “growth inhibition by trypan blue exclusion” value [10] of the same compound?
**A.** induced significant growth inhibition

**Q.** How did the “Poly-(ADP-ribose) polymerase cleavage” value [4, 11] turn out when “antisense oligonucleotides directed against Survivin: Antisense oligonucleotides directed against Survivin 5′-CCCAGCCTTCCAGCTCCTTG-3′ (SEQ ID NO: 4), synthesized using phosphorothioate chemistry (sugars from the 5' end e3 d14 e3, all phosphorothioate, methylation of C not given here; listed as Homo sapiens)” was run?
**A.** evident

**Q.** What about the “in situ TUNEL staining” value [4, 11] of the same compound?
**A.** evident
